The text below walks through data of US20230066315A1, “COMPOUNDS AND USES THEREOF” (Nuvation Bio Inc., priority 2019, published 2023).

pIC50: −log10 of the molar value.

Usually pIC50 stands for −log10 of the IC50, conventionally taken in molar units.

Experiment [1] has as its target T1, adenosine A2a (human) membrane (Homo sapiens, UniProt P29274).
T1 construct: purchased PerkinElmer RBHA2AM400UA
Kind of experiment: A2A adenosine receptor radioligand binding assay ([3H] CGS-21680). The conditions noted are these: radioligand [3H] CGS-21680 6 nM, RT 2 hours. The method, then: A second A2A adenosine receptor radioligand binding assay protocol was used. The protocol used adenosine A2a (human) membrane (PerkinElmer RBHA2AM400UA) at a concentration of […]/well/100 μl and the radioligand [3H] CGS-21680 (Cat No. PerkinElmer-NET1021250UC) at a final concentration of 6 nM. Testing compounds were diluted with DMSO to make 8-point 4-fold serial dilution, starting at 0.2 mM. CGS-15943 was the reference compound. 1 μl of compounds/high control/low control was transferred to the assay plate according to a plate map, followed by 100 μl of membrane stocks and 100 μl of radioligand, in assay buffer (50 mM Tris-HCl, 10 mM MgCl2, 1 mM EDTA, pH 7.4). The plate was sealed and incubated at RT for 2 hours. Unifilter-96 GF/C filter plates (Perkin Elmer Cat #6005174) were soaked with 50 μl of 0.3% PEI per well for at least 0.5 hour at room temperature. When the binding assays were completed, the reaction mixtures were filtered through GF/C plates using Perkin Elmer Filtermate Harvester, and each plate washed 4 times with cold wash buffer (50 mM Tris-HCl, 154 mM NaCl, pH 7.4). The filter plates were dried for 1 hour at 50 degrees. After drying, the bottom of the filter plate wells was sealed, 50 μl of Perkin Elmer Microscint 20 cocktail was added, and the top of the filter plate was sealed. ^3H trapped on the filter was counted using Perkin Elmer MicroBeta2 Reader. The data were analyzed with GraphPad Prism 5 to obtain binding IC50 values. The “Inhibition [% Control]” was calculated using the equation: % Inh=(1−Background subtracted Assay value/Background subtracted HC value)*100, where HC is high control.

Experiment [2] deals with T2, human recombinant adenosine A2A receptor (Homo sapiens, UniProt P29274).
T2 construct: expressed in transfected cells; host or cells: HEK-293
T2 sequence (P29274 whole entry): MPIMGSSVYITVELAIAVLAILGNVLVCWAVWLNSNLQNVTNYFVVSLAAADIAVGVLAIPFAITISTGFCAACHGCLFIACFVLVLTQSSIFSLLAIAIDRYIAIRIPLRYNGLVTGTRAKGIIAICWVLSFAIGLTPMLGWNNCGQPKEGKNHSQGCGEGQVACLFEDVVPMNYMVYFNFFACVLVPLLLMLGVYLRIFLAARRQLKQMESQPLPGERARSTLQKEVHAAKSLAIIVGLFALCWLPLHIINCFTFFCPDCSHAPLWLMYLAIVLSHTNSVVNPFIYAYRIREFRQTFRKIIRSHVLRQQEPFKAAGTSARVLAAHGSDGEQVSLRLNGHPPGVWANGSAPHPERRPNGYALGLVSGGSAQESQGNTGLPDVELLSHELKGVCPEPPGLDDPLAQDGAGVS
Description: cAMP assay (Assay 2) in HEK-293 cells expressing A2A receptor. In kind it is cell-based. The following applies: HEK-293 cells expressing human recombinant adenosine A2A receptor; reducing A2A cAMP levels. The method, then:
The functional activity of compound 1.5 was tested using Assay 2 below, to detect the presence of cAMP. Assay 1 is an alternative assay for this purpose. Activation of G-protein coupled receptors (such as A2A) results in activation of adenylyl cyclase which converts ATP into cAMP which is used as a downstream signaling molecule. Molecules which act as GPCR (or specifically A2A receptor) antagonists cause a decrease in intracellular cAMP concentration.
Assay 2 (Table B2): This assay used HEK-293 cells expressing human recombinant adenosine A2A receptor that were grown prior to the test in media without antibiotic. 100 nL of test articles at 100× of final concentration were transferred to assay plate by Echo. Cells were washed twice with 5 mL of PBS and 10 pL of cells were mixed with 5 mL PBS. After aspirating the PBS and adding 1.5 mL versine, cells were incubated at 37° C. for 2-5 min. After centrifugation, 4 mL of medium was added and adjusted cell density to 5,000 cells/well with Stimulation Buffer. 10 pL of cells were aliquoted to the assay plate, centrifuged at 1000 rpm for 1 minute, and incubated for 60 minutes at room temperature. 5 pL 4× Eu-cAMP tracer solution and 5 pL 4× Ulight™-anti-cAMP solution were added to assay plate, followed by centrifugation and 60-minute incubation at room temperature. Plates were read on EnVision. […]
On the technique in general: cAMP levels reflect the balance of adenylyl cyclase and phosphodiesterase activity.

T1 sequence (P29274 whole entry): as above

Turning to `O=c1ccc2nc(-c3ccc4ncccc4c3)c(-c3ccccc3)nc2[nH]1` [Compound 1.4, 3-phenyl-2-(quinolin-6-yl)pyrido[2,3-b]pyrazin-6(5H)-one], the negative-log IC50 (pIC50) in experiment [1] is 8.26.
In the case of `O=c1cc[nH]c2nc(-c3ccccc3)c(-c3ccc4ncccc4c3)nc12` [Compound 1.5, 3-phenyl-2-(quinolin-6-yl)pyrido[2,3-b]pyrazin-8(5H)-one], the pIC50 in experiment [2] is 6.49; in experiment [1], 7.74.
Regarding `Cn1ccc(=O)c2nc(-c3ccc4ncccc4c3)c(-c3ccccc3)nc21` [Compound 1.8, 5-methyl-3-phenyl-2-(quinolin-6-yl)pyrido[2,3-b]pyrazin-8(5H)-one], the pIC50 in experiment [1] is 6.02.
`O=c1ccc2nc(-c3cc(Cl)c4ncccc4c3)c(-c3ccccc3)nc2[nH]1` [Compound 1.12, 2-(8-chloroquinolin-6-yl)-3-phenylpyrido[2,3-b]pyrazin-6(5H)-one] gave a pIC50 in experiment [1] of 8.18.
